1 compound from paper PMC4508619 (Scientific Reports, 2015) can be followed below.

Entries after “also recorded” stand apart in the source; their conditions may differ.

Common to all, as to type: cell-based
In experiment [1] the target is T1, rTRPV1 (wt) (Rattus norvegicus, UniProt O35433). The experiment is described as follows: Whole-cell patch-clamp, HEK293T cells transiently expressing wt rTRPV1. Details: expressed in transfected cells; host or cells: HEK293T, transient, pCDNA3.1+. How it is done: (§1) The current-voltage relationship was determined using whole-cell patch-clamp recordings.
T1 sequence (O35433 whole entry): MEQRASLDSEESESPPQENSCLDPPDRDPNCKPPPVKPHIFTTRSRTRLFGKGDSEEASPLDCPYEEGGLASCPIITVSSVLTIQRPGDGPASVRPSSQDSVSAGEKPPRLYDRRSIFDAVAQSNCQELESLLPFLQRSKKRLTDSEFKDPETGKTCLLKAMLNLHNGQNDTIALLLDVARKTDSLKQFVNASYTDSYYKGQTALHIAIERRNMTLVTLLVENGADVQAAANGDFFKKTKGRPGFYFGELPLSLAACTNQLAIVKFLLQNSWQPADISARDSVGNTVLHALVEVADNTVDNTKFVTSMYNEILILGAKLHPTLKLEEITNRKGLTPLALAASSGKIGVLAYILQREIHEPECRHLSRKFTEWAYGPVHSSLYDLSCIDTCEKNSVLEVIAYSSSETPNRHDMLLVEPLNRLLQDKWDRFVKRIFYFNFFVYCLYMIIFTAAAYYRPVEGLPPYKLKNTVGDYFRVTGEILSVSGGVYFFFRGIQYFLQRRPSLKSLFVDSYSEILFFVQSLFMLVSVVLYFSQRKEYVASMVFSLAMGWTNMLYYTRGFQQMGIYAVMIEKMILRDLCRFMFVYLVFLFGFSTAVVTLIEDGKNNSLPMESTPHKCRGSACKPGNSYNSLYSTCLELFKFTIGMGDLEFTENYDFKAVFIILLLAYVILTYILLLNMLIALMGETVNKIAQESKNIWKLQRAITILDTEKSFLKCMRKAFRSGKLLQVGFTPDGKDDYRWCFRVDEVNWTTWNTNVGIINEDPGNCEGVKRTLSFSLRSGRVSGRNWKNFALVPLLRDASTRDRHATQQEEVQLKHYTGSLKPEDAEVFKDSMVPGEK
(§2) Patch clamp experiments were executed using HEK293T cells in the whole cell or outside-out configuration 24 hrs after transfection, as previously described. 30,000 cells were plated on glass coverslips (12 mm) coated with relevant amounts of poly-D-Lysine (PDL; Sigma-Aldrich, MO, USA) and/or Matrigel (BD-biosciences, MA, USA) according to the configuration (see below). Patch electrodes were fabricated from borosilicate glass using the P1000 Micropipette Puller (Sutter Instrument, CA, USA) and fire-polished using the microforge MF-900 (Narishige, Tokyo, Japan). […] Recordings were performed using Axopatch 200B patch clamp amplifier (Molecular Devices, CA, USA), and data was collected and analyzed using pClamp 10.2 software (Molecular Devices, CA, USA). […]
(§3) HEK293T cells were plated on coverslips pre-coated with 0.05 mg/ml poly-D-Lysine (PDL; Sigma-Aldrich, MO, USA) and 1 μg/ml Matrigel (BD-biosciences, Bedford, MA, USA) three hrs prior to recordings. […] To avoid potential voltage errors due to receptor overexpression, dose responses were recorded at −40 mV, with the maximal current limited to ~2.5 nA. […] Proton response recordings were performed with 50 μM Amiloride in the bath solution (Sigma-Aldrich, MO, USA) in order to block natively expressed ASICs[43]. […]
Background: In patch-clamp work, channel activity is measured electrically.

Experiment [2] addresses T2, rTRPV1 concatemer 2wt/2ya (two Y511A subunits) (Rattus norvegicus, UniProt O35433, Y511A).
T2 construct: expressed in transfected cells; host or cells: HEK293T, transient, pCDNA3.1+
The experiment can be described thus: Whole-cell patch-clamp, HEK293T cells expressing 2wt/2ya concatemer. As to conditions: −40 mV. The protocol: (§4) Next, we determined the concentration-response relationship of the various concatemeric constructs, using the whole-cell configuration of the patch clamp at holding voltage of −40 mV.
(§5) Patch clamp experiments were executed using HEK293T cells in the whole cell or outside-out configuration 24 hrs after transfection, as previously described. 30,000 cells were plated on glass coverslips (12 mm) coated with relevant amounts of poly-D-Lysine (PDL; Sigma-Aldrich, MO, USA) and/or Matrigel (BD-biosciences, MA, USA) according to the configuration (see below). […] Recordings were performed using Axopatch 200B patch clamp amplifier (Molecular Devices, CA, USA), and data was collected and analyzed using pClamp 10.2 software (Molecular Devices, CA, USA). […]
(§6) HEK293T cells were plated on coverslips pre-coated with 0.05 mg/ml poly-D-Lysine (PDL; Sigma-Aldrich, MO, USA) and 1 μg/ml Matrigel (BD-biosciences, Bedford, MA, USA) three hrs prior to recordings. […] To avoid potential voltage errors due to receptor overexpression, dose responses were recorded at −40 mV, with the maximal current limited to ~2.5 nA. […] Proton response recordings were performed with 50 μM Amiloride in the bath solution (Sigma-Aldrich, MO, USA) in order to block natively expressed ASICs[43].
(§7) Dose response curves were calculated by SigmaPlot software (San Jose, CA) using the sigmoidal Hill equation as follows: […]

In experiment [3] the target is T3, concatemeric rTRPV1 (4wt) (Rattus norvegicus, UniProt O35433). The experiment can be described thus: Whole-cell patch-clamp, HEK293T cells expressing tetrameric concatemer 4wt. Also noted: expressed in transfected cells; host or cells: HEK293T, transient, pCDNA3.1+. How it is done:
as §1, §4, §5, §3

The target of experiment [4] is T3, concatemeric rTRPV1 (4wt). The experiment can be described thus: Single-channel outside-out patch recording, Flp-in TREX HEK293 cells, 4wt. Details: expressed in transfected cells; host or cells: HEK293T, transient, pCDNA3.1+. An excerpt:
(§8) In order to facilitate recording from a single channel, we used an inducible system, Flp-in TREX, which allows doxycycline-controlled construct expression levels. […] The membrane potential was held at +60 mV considering that the conductance of TRPV1 receptor channels is higher at positive potentials. The pipette contained standard intracellular patch solution, and the patch of membrane was continuously perfused with standard extracellular solution.
(§9) Briefly, cells were co-transfected (performed as described above) with pcDNA5/FRT/TO containing the gene of interest and the Flp-recombinase expression vector pOG44 into the Flp-In host cell line (Invitrogen, MA, USA) at a ratio of 1:9, respectively, as previously described.
(§10) Patch clamp experiments were executed using HEK293T cells in the whole cell or outside-out configuration 24 hrs after transfection, as previously described. 30,000 cells were plated on glass coverslips (12 mm) coated with relevant amounts of poly-D-Lysine (PDL; Sigma-Aldrich, MO, USA) and/or Matrigel (BD-biosciences, MA, USA) according to the configuration (see below). Patch electrodes were fabricated from borosilicate glass using the P1000 Micropipette Puller (Sutter Instrument, CA, USA) and fire-polished using the microforge MF-900 (Narishige, Tokyo, Japan). Electrodes were coated with Sylgard (World Precision Instrument, FL, USA) to reduce the capacity of the recording pipette and to improve noise characteristics. […] Recordings were performed using Axopatch 200B patch clamp amplifier (Molecular Devices, CA, USA), and data was collected and analyzed using pClamp 10.2 software (Molecular Devices, CA, USA). All experiments were carried out at room temperature.
Single-channel currents were recorded in the outside-out patch configuration of the patch-clamp technique, as previously described. All single-channel recordings were done using the stable cell line Flp-in TREX 293 cells. Cells were plated on coverslips coated with 0.2 mg/ml PDL one hour prior induction. Doxycycline concentration and induction times for obtaining a membrane patches with a single channel were determined for each construct. Generally, 0.3–1 μg/ml doxycycline was used for 2–4 hrs prior to recordings. Patch electrodes were fire-polished to a resistance of 10–15 MΩ. The pipette solution contained (mM): 130 KCl, 4 NaCl, 2 MgSO4, 0.5 CaCl2, 1 EGTA and 10 HEPES adjusted to pH 7.2 with KOH. Single-channel currents were low-pass filtered at 5 kHz and digitized at 50 kHz. Occasional large brief noise spikes were visually identified and removed from the current traces. Single-channel recordings were analyzed with the pCLAMP 10.2 program Clampfit (Axon Instruments, USA), as previously described. For each concatemeric construct, 150–2000 events were collected from each of 3–5 separate patches. […]

The target of experiment [5] is T3, concatemeric rTRPV1 (4wt). The experiment is described as follows: Two electrode voltage clamp, Xenopus laevis oocytes expressing 4wt concatemer. To be noted: capsaicin, TEVC. How it is done: as §1
(§11) Stage V–VI Xenopus laevis oocytes were prepared as previously described. Oocytes were injected up to 24 hr after isolation with a total of 5 ng cRNA, and assayed 5–10 days later. Two electrode voltage-clamp recordings were carried out at RT using GeneClamp 500 connected to digidata1322A and pCLAMP 8.2 (Molecular Devices, CA, USA). Electrodes (Sutter Instruments, CA, USA) were filled with 3 M KCl and had resistance of 0.5–1 MΩ. Oocytes were continuously perfused with normal frog ringer (NFR) solution without calcium containing (mM): 115 NaCl, 2.5 KCl, 2 […], and 10 HEPES, pH 7.4 with NaOH.
For orientation: In two-electrode clamp one electrode senses voltage and the other passes current.

In experiment [6] the target is T4, rTRPV1 concatemer 4ya (Y511A in all subunits) (Rattus norvegicus, UniProt O35433, Y511A).
T4 construct: expressed in transfected cells; host or cells: HEK293T, transient, pCDNA3.1+
T4 sequence (O35433 whole entry Y511A): as the sequence (O35433 whole entry) above, with Y511A counted along it
T4 sequence (O35433 2-838 Y511A limits assumed): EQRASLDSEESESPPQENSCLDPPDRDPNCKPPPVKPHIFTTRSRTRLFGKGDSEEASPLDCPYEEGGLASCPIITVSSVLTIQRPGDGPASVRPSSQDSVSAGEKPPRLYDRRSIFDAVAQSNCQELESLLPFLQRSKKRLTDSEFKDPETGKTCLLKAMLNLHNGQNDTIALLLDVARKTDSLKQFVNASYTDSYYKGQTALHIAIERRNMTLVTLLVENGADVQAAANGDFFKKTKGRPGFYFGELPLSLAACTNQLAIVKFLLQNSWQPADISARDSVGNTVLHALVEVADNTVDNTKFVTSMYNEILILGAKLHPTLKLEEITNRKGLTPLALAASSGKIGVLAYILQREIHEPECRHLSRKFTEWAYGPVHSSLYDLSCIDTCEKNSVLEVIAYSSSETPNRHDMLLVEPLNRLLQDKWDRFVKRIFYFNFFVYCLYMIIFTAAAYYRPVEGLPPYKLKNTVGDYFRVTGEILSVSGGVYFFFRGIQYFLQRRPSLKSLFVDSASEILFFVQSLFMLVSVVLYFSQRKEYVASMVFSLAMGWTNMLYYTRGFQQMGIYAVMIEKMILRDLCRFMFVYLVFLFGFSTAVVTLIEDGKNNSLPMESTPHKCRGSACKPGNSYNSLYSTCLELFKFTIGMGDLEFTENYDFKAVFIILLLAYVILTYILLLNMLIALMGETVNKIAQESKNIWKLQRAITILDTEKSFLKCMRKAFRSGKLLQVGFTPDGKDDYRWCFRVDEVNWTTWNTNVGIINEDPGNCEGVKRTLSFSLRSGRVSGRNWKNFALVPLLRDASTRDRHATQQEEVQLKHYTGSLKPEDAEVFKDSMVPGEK
T4 sequence (O35433 2-838 Y511A limits assumed): as above
T4 sequence (O35433 2-838 Y511A limits assumed): as above
The experiment is described as follows: Whole-cell patch-clamp, HEK293T cells expressing 4ya concatemer. To be noted: capsaicin 100 μM, whole-cell voltage ramps −80 to +80 mV. How it is done: as §2, §6

In the next experiment the target is T5, rTRPV1 concatemer wt/3ya (Rattus norvegicus, UniProt O35433, Y511A).
T5 construct: expressed in transfected cells
T5 sequence (O35433 whole entry, stated change not applied): as the sequence (O35433 whole entry) above
T5 sequence (O35433 2-838 Y511A limits assumed): as the sequence (O35433 2-838 Y511A limits assumed) above
T5 sequence (O35433 2-838 Y511A limits assumed): as above
T5 sequence (O35433 2-838 Y511A limits assumed): as above
The experiment can be described thus: Single-channel outside-out patch recording, Flp-in TREX HEK293 cells, wt/3ya. To be noted: for single-channel average amplitude, wt/3ya / unitary conductance, wt/3ya: +60 mV, outside-out.
Text: as §8, §9, §10
Single-channel currents were recorded in the outside-out patch configuration of the patch-clamp technique, as previously described. All single-channel recordings were done using the stable cell line Flp-in TREX 293 cells. Cells were plated on coverslips coated with 0.2 mg/ml PDL one hour prior induction. Doxycycline concentration and induction times for obtaining a membrane patches with a single channel were determined for each construct. Generally, 0.3–1 μg/ml doxycycline was used for 2–4 hrs prior to recordings. Patch electrodes were fire-polished to a resistance of 10–15 MΩ. The pipette solution contained (mM): 130 KCl, 4 NaCl, 2 MgSO4, 0.5 CaCl2, 1 EGTA and 10 HEPES adjusted to pH 7.2 with KOH. Single-channel currents were low-pass filtered at 5 kHz and digitized at 50 kHz. Occasional large brief noise spikes were visually identified and removed from the current traces. Single-channel recordings were analyzed with the pCLAMP 10.2 program Clampfit (Axon Instruments, USA), as previously described. For each concatemeric construct, 150–2000 events were collected from each of 3–5 separate patches. To determine channel amplitude, all-point amplitude histograms were created using data digitally filtered at 2 kHz. To determine channel open probability, traces filtered at 5 kHz were idealized using the half-amplitude threshold crossing method (pCLAMP 10.2)[38].

Experiment [7] concerns the target T6, rTRPV1 concatemer 4qa (E600Q/E648A in all subunits) (Rattus norvegicus, UniProt O35433, E600Q/E648A).
T6 construct: expressed in transfected cells; host or cells: HEK293T, transient, pCDNA3.1+
The experiment can be described thus: Whole-cell patch-clamp, HEK293T cells expressing 4qa concatemer. As to conditions: capsaicin 1 μM, −40 mV. The protocol:
as §2, §6

Experiment [8] has as its target T7, rTRPV1 concatemer wt/3ya (three Y511A subunits) (Rattus norvegicus, UniProt O35433, Y511A).
T7 construct: expressed in transfected cells; host or cells: HEK293T, transient, pCDNA3.1+
The experiment can be described thus: Whole-cell patch-clamp, HEK293T cells expressing wt/3ya concatemer. How it is done: as §4, §5, §6, §7

The target in experiment [9] is T8, rTRPV1 concatemer 3wt/ya (one Y511A subunit) (Rattus norvegicus, UniProt O35433, Y511A).
T8 construct: expressed in transfected cells; host or cells: HEK293T, transient, pCDNA3.1+
T8 sequence (O35433 whole entry, stated change not applied): as the sequence (O35433 whole entry) above
T8 sequence (O35433 2-838 limits assumed, stated change not applied): as the sequence (O35433 2-838 Y511A limits assumed) above, with A510Y counted along it
T8 sequence (O35433 2-838 limits assumed, stated change not applied): as the sequence (O35433 2-838 Y511A limits assumed) above, with A510Y counted along it
T8 sequence (O35433 2-838 Y511A limits assumed): as the sequence (O35433 2-838 Y511A limits assumed) above
The experiment can be described thus: Whole-cell patch-clamp, HEK293T cells expressing 3wt/ya concatemer. To be noted: −40 mV. The protocol:
as §4, §5, §6, §7

The target in experiment [10] is T1, rTRPV1 (wt). The experiment can be described thus: Two electrode voltage clamp, Xenopus laevis oocytes expressing wt rTRPV1. To be noted: capsaicin, TEVC. The protocol:
as §1, §11

Where [11] appears, read: 2 μM capsaicin, +60 mV, outside-out.

T7 sequence (O35433 whole entry, stated change not applied): as the sequence (O35433 whole entry) above
T7 sequence (O35433 2-838 Y511A limits assumed): as the sequence (O35433 2-838 Y511A limits assumed) above
T7 sequence (O35433 2-838 Y511A limits assumed): as above
T7 sequence (O35433 2-838 Y511A limits assumed): as above
T3 sequence (O35433 whole entry): as the sequence (O35433 whole entry) above
T3 sequence (O35433 2-838 limits assumed): as the sequence (O35433 2-838 Y511A limits assumed) above, with A510Y counted along it
T3 sequence (O35433 2-838 limits assumed): as the sequence (O35433 2-838 Y511A limits assumed) above, with A510Y counted along it
T3 sequence (O35433 2-838 limits assumed): as the sequence (O35433 2-838 Y511A limits assumed) above, with A510Y counted along it
T2 sequence (O35433 whole entry, stated change not applied): as the sequence (O35433 whole entry) above
T2 sequence (O35433 2-838 limits assumed, stated change not applied): as the sequence (O35433 2-838 Y511A limits assumed) above, with A510Y counted along it
T2 sequence (O35433 2-838 Y511A limits assumed): as the sequence (O35433 2-838 Y511A limits assumed) above
T2 sequence (O35433 2-838 Y511A limits assumed): as above
T6 sequence (O35433 whole entry E600Q/E648A): as the sequence (O35433 whole entry) above, with E600Q, E648A counted along it
T6 sequence (O35433 2-838 E600Q/E648A limits assumed): as the sequence (O35433 2-838 Y511A limits assumed) above, with A510Y, E599Q, E647A counted along it
T6 sequence (O35433 2-838 E600Q/E648A limits assumed): as the sequence (O35433 2-838 Y511A limits assumed) above, with A510Y, E599Q, E647A counted along it
T6 sequence (O35433 2-838 E600Q/E648A limits assumed): as the sequence (O35433 2-838 Y511A limits assumed) above, with A510Y, E599Q, E647A counted along it

As for `COc1cc(CNC(=O)CCCC/C=C/C(C)C)ccc1O` [capsaicin], the “average current amplitude ICAP+80mV (±SEM), HEK293T, wt” value on rTRPV1 (wt) [1] (capsaicin 1 μM, +80 mV) was found to be 8.3 ± 1.2 nA. Moreover, the “Hill coefficient nH for capsaicin, wt” value on rTRPV1 (wt) [1] (whole-cell, −40 mV) was found to be 1.3. Also, the “Hill coefficient nH for capsaicin, 2wt/2ya” value in experiment [2] is reported as 1.2. In addition, in experiment [3] (capsaicin 1 μM, +80 mV), the “average current amplitude ICAP+80mV (±SEM), HEK293T, 4wt” value came to 7.8 ± 1.8 nA. Also, the “Hill coefficient nH for capsaicin, 4wt” value in [3] (whole-cell, −40 mV) amounted to 1.4. In experiment [4], the “capsaicin concentration required to achieve full TRPV1 activation, 4wt” value came to 2 µM. Also, in experiment [4] (setting [11]), the “open probability, 4wt” value turned out to be 0.89 ± 0.10; the “single-channel average amplitude, 4wt” value turned out to be 5.2 ± 0.4 pA; the “unitary conductance, 4wt” value amounted to 86 ± 3 pS. The “average current amplitude ICAP+80mV (±SEM), oocytes, 4wt” value in experiment [5] is recorded as 4.7 ± 0.2 μA. Moreover, the “response of 4ya construct to capsaicin” value in [6] was “insensitive; also recorded: nearly eliminated”. Also, on rTRPV1 concatemer wt/3ya (2 μM capsaicin), the “single-channel average amplitude, wt/3ya” value is on record as 4.8 ± 0.5 pA and the “unitary conductance, wt/3ya” value was found to be 80 ± 5 pS. Further, at rTRPV1 concatemer wt/3ya (30 μM capsaicin), the “single-channel average amplitude, wt/3ya” value came to 4.9 ± 0.4 pA and the “unitary conductance, wt/3ya” value stood at 82 ± 3 pS. The “capsaicin concentration required to achieve full TRPV1 activation, wt/3ya” value at rTRPV1 concatemer wt/3ya (single functional VBS) came out at 30 µM. Besides, the “capsaicin response, 4qa vs 4wt” value in experiment [7] is reported as “unaffected”. Further, the “response of wt/3ya construct to capsaicin” value in experiment [8] (capsaicin 100 μM, whole-cell voltage ramps −80 to +80 mV) is recorded as “robust outward-rectifying current; also recorded: robust capsaicin response”. The “Hill coefficient nH for capsaicin, wt/3ya” value in experiment [8] (whole-cell, −40 mV) was determined as 1.1. In addition, the “Hill coefficient nH for capsaicin, 3wt/ya” value in experiment [9] is 1.1. Also, on rTRPV1 (wt) [10], the “average current amplitude ICAP+80mV (±SEM), oocytes, wt” value turned out to be 5.6 ± 0.3 μA.
